Active and inactive are the calls of the source. How the calls were made is not given here.
Tested on: CCRIS mutagenicity, Ames/micronucleus/aberration tests
Experiment: CCRIS mutagenicity studies
[1] = Test System: AMES SALMONELLA TYPHIMURIUM, Strain/Indicator: TA98, Metabolic Activation: NONE, Method: STANDARD PLATE
[2] = Test System: AMES SALMONELLA TYPHIMURIUM, Strain/Indicator: TA98, Metabolic Activation: RAT, LIVER, S-9, AROCLOR 1254, Method: STANDARD PLATE
[3] = Test System: AMES SALMONELLA TYPHIMURIUM, Strain/Indicator: TA100, Metabolic Activation: NONE, Method: STANDARD PLATE
[4] = Test System: AMES SALMONELLA TYPHIMURIUM, Strain/Indicator: TA100, Metabolic Activation: RAT, LIVER, S-9, AROCLOR 1254, Method: STANDARD PLATE
[5] = Test System: AMES SALMONELLA TYPHIMURIUM, Strain/Indicator: TA102, Metabolic Activation: NONE, Method: STANDARD PLATE

COc1ccc(C(=O)[C@@H]2O[C@@H]2c2ccccc2)cc1 was tested, and the mutagenic call [1] was “inactive; negative”, the mutagenic call [2] was “inactive; negative” and the mutagenic call [3] was “inactive; negative”. For the same molecule, the mutagenic call [4] was “inactive; negative”.

With CC(Cl)CO (stereo not drawn) the mutagenic call (Test System: AMES SALMONELLA TYPHIMURIUM, Strain/Indicator: TA1530, Metabolic Activation: NONE, Method: STANDARD PLATE) was “active; positive” and the mutagenic call (Test System: AMES SALMONELLA TYPHIMURIUM, Strain/Indicator: TA1535, Metabolic Activation: RAT, LIVER, S-9, PCB, Method: STANDARD PLATE) was “active; positive”.

In the case of [Cl][Pb][Cl], the mutagenic call (End Point: IN VITRO MICRONUCLEUS, Test System: HAMSTER V79 CELLS, Metabolic Activation: NONE) is reported as “active; positive (aneugenic above 1.1 um)”, the mutagenic call (Test System: CHINESE HAMSTER OVARY, Strain/Indicator: CHO-AS52/6-THIOGUANINE, Metabolic Activation: NONE) is reported as “active; positive” and the mutagenic call (Test System: CHINESE HAMSTER V-79, Strain/Indicator: SP5 V-79 (HPRT)/6-THIOGUANINE, Metabolic Activation: NONE, Method: STANDARD PLATE) is reported as “inactive; negative”. The mutagenic call (Test System: CHINESE HAMSTER V-79, Strain/Indicator: SPD8 V-79 (HPRT)/6-THIOGUANINE, Metabolic Activation: NONE, Method: STANDARD PLATE) was “inactive; negative”.

For CCS(=O)(=O)CCn1c([N+](=O)[O-])cnc1C, the mutagenic call [2] was “inactive; negative”, the mutagenic call (Test System: AMES SALMONELLA TYPHIMURIUM, Strain/Indicator: TA100(1,8-DNP6), Metabolic Activation: NONE, Method: PREINCUBATION (AEROBIC)) was “active; positive” and the mutagenic call (Test System: AMES SALMONELLA TYPHIMURIUM, Strain/Indicator: TA100(NR), Metabolic Activation: NONE, Method: PREINCUBATION (AEROBIC)) was “active; positive”. The mutagenic call (Test System: AMES SALMONELLA TYPHIMURIUM, Strain/Indicator: TA100(NR), Metabolic Activation: NONE, Method: PREINCUBATION (ANAEROBIC)) was “active; positive”, the mutagenic call (Test System: AMES SALMONELLA TYPHIMURIUM, Strain/Indicator: TA100(NR), Metabolic Activation: RAT, LIVER, S-9, AROCLOR 1254, Method: PREINCUBATION (AEROBIC)) was “active; positive” and the mutagenic call (Test System: AMES SALMONELLA TYPHIMURIUM, Strain/Indicator: TA100(NR), Metabolic Activation: RAT, LIVER, S-9, AROCLOR 1254, Method: PREINCUBATION (ANAEROBIC)) was “active; positive”. The mutagenic call (Test System: AMES SALMONELLA TYPHIMURIUM, Strain/Indicator: TA100(NR), Metabolic Activation: RAT, LIVER, S-9, AROCLOR 1254, Method: STANDARD PLATE) was “active; positive”, the mutagenic call (Test System: AMES SALMONELLA TYPHIMURIUM, Strain/Indicator: TA100, Metabolic Activation: NONE, Method: PREINCUBATION (AEROBIC)) was “active; positive” and the mutagenic call (Test System: AMES SALMONELLA TYPHIMURIUM, Strain/Indicator: TA100, Metabolic Activation: NONE, Method: PREINCUBATION (ANAEROBIC)) was “active; positive”. The mutagenic call [3] was “active; positive”, the mutagenic call (Test System: AMES SALMONELLA TYPHIMURIUM, Strain/Indicator: TA100, Metabolic Activation: RAT, LIVER, S-9, AROCLOR 1254, Method: PREINCUBATION (AEROBIC)) was “active; positive” and the mutagenic call (Test System: AMES SALMONELLA TYPHIMURIUM, Strain/Indicator: TA100, Metabolic Activation: RAT, LIVER, S-9, AROCLOR 1254, Method: PREINCUBATION (ANAEROBIC)) was “active; positive”. The mutagenic call [4] was “active; positive”, the mutagenic call (Test System: AMES SALMONELLA TYPHIMURIUM, Strain/Indicator: UTH8414, Metabolic Activation: NONE, Method: STANDARD PLATE) was “active; positive” and the mutagenic call (Test System: AMES SALMONELLA TYPHIMURIUM, Strain/Indicator: YG1029, Metabolic Activation: NONE, Method: PREINCUBATION (AEROBIC)) was “active; positive”.

CC(=O)N(O[C@@H]1O[C@H](CO)[C@@H](O)[C@H](O)[C@H]1O)c1ccc(Oc2ccc(Cl)cc2)cc1 was tested, and the mutagenic call (Test System: AMES SALMONELLA TYPHIMURIUM, Strain/Indicator: TA100, Metabolic Activation: GUINEA PIG, LIVER, MICROSOMAL FRACTION, PCB) was “active; positive”, the mutagenic call (Test System: AMES SALMONELLA TYPHIMURIUM, Strain/Indicator: TA100, Metabolic Activation: GUINEA PIG, LIVER, S-9, PCB) was “active; positive” and the mutagenic call (Test System: AMES SALMONELLA TYPHIMURIUM, Strain/Indicator: TA100, Metabolic Activation: GUINEA PIG, LIVER, S-105, PCB) was “inactive; negative”.

For CC(C)CNCC(C)C, the mutagenic call (Test System: AMES SALMONELLA TYPHIMURIUM, Strain/Indicator: TA98, Metabolic Activation: HAMSTER, LIVER, S-9, AROCLOR 1254 (10%), Method: PREINCUBATION) was “inactive; negative”, the mutagenic call (Test System: AMES SALMONELLA TYPHIMURIUM, Strain/Indicator: TA98, Metabolic Activation: NONE, Method: PREINCUBATION) was “inactive; negative” and the mutagenic call (Test System: AMES SALMONELLA TYPHIMURIUM, Strain/Indicator: TA98, Metabolic Activation: RAT, LIVER, S-9, AROCLOR 1254 (10%), Method: PREINCUBATION) was “inactive; negative”. The mutagenic call (Test System: AMES SALMONELLA TYPHIMURIUM, Strain/Indicator: TA100, Metabolic Activation: HAMSTER, LIVER, S-9, AROCLOR 1254 (10%), Method: PREINCUBATION) was “inactive; negative”, the mutagenic call (Test System: AMES SALMONELLA TYPHIMURIUM, Strain/Indicator: TA100, Metabolic Activation: NONE, Method: PREINCUBATION) was “inactive; negative” and the mutagenic call (Test System: AMES SALMONELLA TYPHIMURIUM, Strain/Indicator: TA100, Metabolic Activation: RAT, LIVER, S-9, AROCLOR 1254 (10%), Method: PREINCUBATION) was “inactive; negative”. For the same molecule, the mutagenic call (Test System: AMES SALMONELLA TYPHIMURIUM, Strain/Indicator: TA1535, Metabolic Activation: HAMSTER, LIVER, S-9, AROCLOR 1254 (10%), Method: PREINCUBATION) was “inactive; negative”, the mutagenic call (Test System: AMES SALMONELLA TYPHIMURIUM, Strain/Indicator: TA1535, Metabolic Activation: NONE, Method: PREINCUBATION) was “inactive; negative” and the mutagenic call (Test System: AMES SALMONELLA TYPHIMURIUM, Strain/Indicator: TA1535, Metabolic Activation: RAT, LIVER, S-9, AROCLOR 1254 (10%), Method: PREINCUBATION) was “inactive; negative”. The mutagenic call (Test System: AMES SALMONELLA TYPHIMURIUM, Strain/Indicator: TA1537, Metabolic Activation: HAMSTER, LIVER, S-9, AROCLOR 1254 (10%), Method: PREINCUBATION) was “inactive; negative”, the mutagenic call (Test System: AMES SALMONELLA TYPHIMURIUM, Strain/Indicator: TA1537, Metabolic Activation: NONE, Method: PREINCUBATION) was “inactive; negative” and the mutagenic call (Test System: AMES SALMONELLA TYPHIMURIUM, Strain/Indicator: TA1537, Metabolic Activation: RAT, LIVER, S-9, AROCLOR 1254 (10%), Method: PREINCUBATION) was “inactive; negative”.

Cc1cnc2c(C)c(C)c3c(nc(N)n3C)c2n1 was tested, and the mutagenic call [2] was “active; positive”.

For CNc1ncn(C)c1C(=O)N(C)N=O, the mutagenic call [1] was “inactive; negative”, the mutagenic call (Test System: AMES SALMONELLA TYPHIMURIUM, Strain/Indicator: TA98, Metabolic Activation: S-9, Method: STANDARD PLATE) was “inactive; negative” and the mutagenic call [3] was “inactive; negative”. The mutagenic call (Test System: AMES SALMONELLA TYPHIMURIUM, Strain/Indicator: TA100, Metabolic Activation: S-9, Method: STANDARD PLATE) was “active; positive”, the mutagenic call [5] was “active; positive” and the mutagenic call (Test System: AMES SALMONELLA TYPHIMURIUM, Strain/Indicator: TA102, Metabolic Activation: S-9, Method: STANDARD PLATE) was “active; positive”. The mutagenic call (Test System: AMES SALMONELLA TYPHIMURIUM, Strain/Indicator: TA1535, Metabolic Activation: S-9, Method: STANDARD PLATE) was “active; positive”, the mutagenic call (Test System: AMES SALMONELLA TYPHIMURIUM, Strain/Indicator: TA1537, Metabolic Activation: NONE, Method: STANDARD PLATE) was “inactive; negative” and the mutagenic call (Test System: AMES SALMONELLA TYPHIMURIUM, Strain/Indicator: TA1537, Metabolic Activation: S-9, Method: STANDARD PLATE) was “inactive; negative”.

With CC1(C)CC[C@]2(C(=O)O)CC[C@]3(C)C(=CC[C@@H]4[C@@]5(C)C[C@H](O)[C@H](O[C@@H]6O[C@H](CO)[C@@H](O)[C@H](O)[C@H]6O)C(C)(C(=O)O)C5CC[C@]43C)[C@H]2C1 (stereo partly drawn) the mutagenic call (Test System: AMES SALMONELLA TYPHIMURIUM, Strain/Indicator: TA97, Metabolic Activation: NONE, Method: STANDARD PLATE) was “inactive; negative”, the mutagenic call (Test System: AMES SALMONELLA TYPHIMURIUM, Strain/Indicator: TA97, Metabolic Activation: RAT, LIVER, S-9, AROCLOR 1254, Method: STANDARD PLATE) was “inactive; negative” and the mutagenic call [1] was “inactive; negative”. For the same molecule, the mutagenic call [2] was “inactive; negative”, the mutagenic call [3] was “inactive; negative” and the mutagenic call [4] was “inactive; negative”. The mutagenic call [5] was “inactive; negative” and the mutagenic call (Test System: AMES SALMONELLA TYPHIMURIUM, Strain/Indicator: TA102, Metabolic Activation: RAT, LIVER, S-9, AROCLOR 1254, Method: STANDARD PLATE) was “inactive; negative”.

Source: PubChem BioAssay AID1259407 (Chemical Carcinogenesis Research Information System (CCRIS), 2018)
